{"source": "patent US7390642B2", "about": "“Salutaridinol 7-O-acetyltransferase and derivatives thereof” (priority 2001, dated 2008)", "molecules": {"B1": {"name": "recombinant enzyme: P. somniferum salutaridinol 7-O-acetyltransferase, SEQ. ID No. 14, 474 amino acids (protein, listed as Papaver somniferum)", "chain": "MATMYSAAVEVISKETIKPTTPTPSQLKNFNLSLLDQCFPLYYYVPIILFYPATAANSTGSSNHHDDLDLLKSSLSKTLVHFYPMAGRMIDNILVDCHDQGINFYKVKIRGKMCEFMSQPDVPLSQLLPSEVVSASVPKEALVIVQVNMFDCGGTAICSSVSHKIADAATMSTFIRSWASTTKTSRSGGSTAAVTDQKLIPSFDSASLFPPSERLTSPSGMSEIPFSSTPEDTEDDKTVSKRFVFDFAKITSVREKLQVLMHDNYKSRRQTRVEVVTSLIWKSVMKSTPAGFLPVVHHAVNLRKKMDPPLQDVSFGNLSVTVSAFLPATTTTTTNAVNKTINSTSSESQVVLHELHDFIAQMRSEIDKVKGDKGSLEKVIQNFASGHDASIKKINDVEVINFWISSWCRMGLYEIDFGWGKPIWVTVDPNIKPNKNCFFMNDTKCGEGIEVWASFLEDDMAKFELHLSEILELI"}}, "key": {"[1]": {"biological_target": "T1, salutaridinol 7-O-acetyltransferase (Papaver somniferum, UniProt Q94FT4)"}, "[2]": {"biological_target": "T1, salutaridinol 7-O-acetyltransferase", "assay": "Inhibition of enzyme activity by covalent modification with diethylpyrocarbonate", "assay_type": "biochemical, P. somniferum", "design": "The full-length cDNA generated by RT-PCR was ligated into pFastBac HTa; His tag (N); made in house; host or cells: Spodoptera frugiperda Sf9 cells (baculovirus, pFastBac HTa); purified from culture medium", "description": "Sequence Analysis of pSalAT: Translation of the complete nucleotide sequence of salAT yielded a polypeptide of 474 amino acids containing no apparent signal peptide. This is consistent with the cytosolic localization of the enzyme activity (6). The enzyme activity is also operationally found associated with the cytosolic fraction of exuded latex. The salAT amino acid sequence contains residues conserved in other plant acetyltransferases as indicated by the black boxes in FIG. 2 (SEQ. IDs No.7 to 12). The longest contiguous region of conserved amino acids are the five residues DFGWG near the carboxy terminus that were used for primer design and are indicated by an arrow. Conserved histidine and aspartate residues (HXXXD; denoted by # in FIG. 2) thought to be involved in catalysis as characterized by x-ray crystallography for the bacterial enzymes chloramphenicol acetyltransferase and dihydrolipoamide acetyltransferase are also present in salutaridinol 7-O-acetyltransferase (23,24)."}, "[3]": {"system": "COC1=C[C@]23CCN(C)[C@H](Cc4ccc(OC)c(O)c42)C3=C[C@@H]1O", "assay": "purified protein, by the assay type", "conditions": "other: fixed concentration of acetyl CoA of 30 mm; recombinant enzyme"}, "[4]": {"system": "CC(=O)SCCNC(=O)CCNC(=O)[C@H](O)C(C)(C)COP(=O)(O)OP(=O)(O)OC[C@H]1O[C@@H](n2cnc3c(N)ncnc32)[C@H](O)[C@@H]1OP(=O)(O)O", "assay": "purified protein, by the assay type"}, "[5]": {"conditions": "standard assay conditions, acetylation of salutaridinol"}}, "note": "Like-named read-outs stand apart in the source and are kept apart here.", "data": [{"molecule": "COC1=C[C@]23CCN(C)[C@H](Cc4ccc(OC)c(O)c42)C3=C[C@@H]1O", "note": "[7(R)-salutaridinol]", "values": [{"measurement": "acetylation at C-7 by the recombinant enzyme (substrate acceptance)", "setting": "[1]; recombinant enzyme, acetyl CoA", "value": "not"}]}, {"molecule": "CCOC(=O)OC(=O)OCC", "note": "[DEPC, diethylpyrocarbonate]", "values": [{"measurement": "effect of carbethoxylation of histidine residues on enzyme activity", "setting": "[2]", "value": "loss of enzyme activity"}, {"measurement": "inhibition at 3000 µM", "setting": "[2]; 3 mM DEPC", "value": 50, "unit": "%"}, {"measurement": "inhibition at 5000 µM", "setting": "[2]; 5 mM DEPC", "value": 92, "unit": "%"}, {"measurement": "inactivation of enzyme", "setting": "[2]; 5 mM DEPC after preincubation of the enzyme with 30 mM acetyl CoA", "value": 46, "unit": "%"}]}, {"molecule": "[3H]C1(O)C=C2C3Cc4ccc(OC)c(O)c4C2(C=C1OC)CCN3C", "note": "(centres unmarked) [[7-^3H]salutaridinol]", "values": [{"measurement": "conversion into a product that co-migrated during TLC with authentic thebaine standard", "setting": "[1]; radioassay of pure, recombinant enzyme", "value": 100, "unit": "%"}]}, {"molecule": "CC[C@]12C=CCN3CC[C@@]4(c5ccc(OC)cc5N(C)[C@H]4[C@@](O)(C(=O)OC)[C@@H]1O)[C@@H]32", "note": "[deacetylvindoline]", "values": [{"measurement": "acetylation at C-7 by the recombinant enzyme (substrate acceptance)", "setting": "[1]; recombinant enzyme, acetyl CoA", "value": "not"}]}, {"molecule": "CN1CC[C@]23c4c5ccc(O)c4O[C@H]2[C@@H](O)C=C[C@H]3[C@H]1C5", "note": "[morphine]", "values": [{"measurement": "acetylation at C-7 by the recombinant enzyme (substrate acceptance)", "setting": "[1]", "value": "not"}]}, {"molecule": "COC1=C[C@]23CCN(C)[C@H](Cc4cc5c(cc42)OCO5)C3=C[C@@H]1O", "note": "[nudaurine]", "values": [{"measurement": "Vmax (nudaurine)", "setting": "[1]; nudaurine as substrate", "value": 19, "unit": "pmol/s"}, {"measurement": "Km", "setting": "[1]; read-out: apparent Km nudaurine, at 30 mM acetyl CoA", "value": 23, "unit": "µM"}, {"measurement": "acetylation at C-7 by the recombinant enzyme (substrate acceptance)", "setting": "[1]; recombinant enzyme, acetyl CoA", "value": "acetylated"}]}, {"molecule": "COC1=C[C@]23CCN(C)[C@H](Cc4ccc(OC)c(O)c42)C3=CC1=O", "note": "[salutaridine]", "values": [{"measurement": "acetylation at C-7 by the recombinant enzyme (substrate acceptance)", "setting": "[1]; recombinant enzyme, acetyl CoA", "value": "not"}]}, {"molecule": "COC1=C[C@]23CCN(C)[C@H](Cc4ccc(OC)c(O)c42)C3=C[C@@H]1O", "note": "[salutaridinol, 7(S)-salutaridinol]", "values": [{"measurement": "ratio kcat/Km (salutaridinol):kcat/Km(nudaurine)", "setting": "[1]; preference of salutaridinol over nudaurine, factor", "value": 3.3}, {"measurement": "acetylation at C-7 by the recombinant enzyme (substrate acceptance)", "setting": "[1]; recombinant enzyme, acetyl CoA, listed as 7(S)-salutaridinol", "value": "acetylated"}]}, {"molecule": "salutaridinol 7-O-acetyltransferase (Papaver somniferum)", "values": [{"measurement": "Km", "setting": "[3]", "value": 9, "unit": "µM"}, {"measurement": "Vmax", "setting": "[3]", "value": 25, "unit": "pmol/s"}, {"measurement": "Km", "setting": "[4]; other: at 10 mM nudaurine", "value": 106, "unit": "µM"}, {"measurement": "Km", "setting": "[4]; other: fixed concentration of salutaridinol of 10 mM, recombinant enzyme", "value": 54, "unit": "µM"}]}, {"molecule": "B1", "values": [{"measurement": "pH optimal range", "setting": "[1]; [5]", "value": "7-9"}, {"measurement": "temperature optimum", "setting": "[1]; [5]", "value": 47, "unit": "°C"}]}]}
